Assay results published in ChEMBL document CHEMBL1201862, “PubChem BioAssay data set” (2004).
Blank lines part the entries; values can stand above or below the molecule they belong to. The source made the active and inactive calls.

Legend:
[1] = target: T1, E3 ubiquitin-protein ligase XIAP (Homo sapiens, UniProt P98170); assay: Counter Screen using XIAP-Bir3 for Chemical Antagonists of Bir1/2 domains of IAP-family anti-apoptotic proteins. [Related pubchem assays (depositor defined):AID1018, AID1449, AID1514, AID1638, AID1749, AID1750, AID488957, AID488963]
T1 sequence (P98170 whole entry): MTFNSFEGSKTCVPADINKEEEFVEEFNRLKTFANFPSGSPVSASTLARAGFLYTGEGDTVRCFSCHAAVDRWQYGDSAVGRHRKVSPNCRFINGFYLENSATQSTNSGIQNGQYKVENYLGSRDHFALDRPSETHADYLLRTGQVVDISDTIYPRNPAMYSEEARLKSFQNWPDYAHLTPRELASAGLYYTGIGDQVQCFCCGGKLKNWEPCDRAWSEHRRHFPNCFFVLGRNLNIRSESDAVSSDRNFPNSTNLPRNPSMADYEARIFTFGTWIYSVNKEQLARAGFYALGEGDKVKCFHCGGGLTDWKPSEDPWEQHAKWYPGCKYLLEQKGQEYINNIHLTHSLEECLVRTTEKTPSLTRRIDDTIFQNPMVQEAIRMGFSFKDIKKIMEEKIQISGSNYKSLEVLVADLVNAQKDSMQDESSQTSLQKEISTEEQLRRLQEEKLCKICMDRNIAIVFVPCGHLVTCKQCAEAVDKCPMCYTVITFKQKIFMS

[2] = protection from phage-mediated lysis, alamar blue read-out – E. coli UTI89, K1F phage, bacterial capsule biogenesis inhibitors (AID 488966); type: functional
[3] = target: T1, E3 ubiquitin-protein ligase XIAP; assay: small molecules displacing peptide from XIAP – biochemical, IAP family, fluorescence polarization (AID 1018); type: functional
BJ [4] = assay: BJ-TERT-LT-ST fibroblast viability loss – cell-based, RAS-independent, luminescence, dose response (AID 1935); type: functional; details: Homo sapiens;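 also: BJ fibroblasts immortalized with TERT plus LT and ST oncogenes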
BJ [5] = assay: cells; type: functional, cell-based; details: Homo sapiens
BJ [6] = assay: BJ-TERT fibroblast viability loss – cell-based, RAS-independent, luminescence, dose response (AID 1933); type: functional; details: Homo sapiens
[7] = target: Envelope glycoprotein gp160 (Human immunodeficiency virus 1, UniProt Q6QLK5); assay: cell-free HIV fusion peptide-binding blockers – biochemical, uHTS, fluorescence dequenching, […] (AID 1986)
[8] = DRD fibroblast viability loss – cell-based, non-viral oncogenic, luminescence, dose response (AID 1934); type: functional; details: Homo sapiens
Genome polyprotein = Genome polyprotein (dengue virus type 2, UniProt P29990); assay: flavivirus cap methylation enzyme inhibition – biochemical, confirmation dose response, primary screen (AID 588689); type: functional
Chain of Genome polyprotein (P29990 2492-3391 limits assumed): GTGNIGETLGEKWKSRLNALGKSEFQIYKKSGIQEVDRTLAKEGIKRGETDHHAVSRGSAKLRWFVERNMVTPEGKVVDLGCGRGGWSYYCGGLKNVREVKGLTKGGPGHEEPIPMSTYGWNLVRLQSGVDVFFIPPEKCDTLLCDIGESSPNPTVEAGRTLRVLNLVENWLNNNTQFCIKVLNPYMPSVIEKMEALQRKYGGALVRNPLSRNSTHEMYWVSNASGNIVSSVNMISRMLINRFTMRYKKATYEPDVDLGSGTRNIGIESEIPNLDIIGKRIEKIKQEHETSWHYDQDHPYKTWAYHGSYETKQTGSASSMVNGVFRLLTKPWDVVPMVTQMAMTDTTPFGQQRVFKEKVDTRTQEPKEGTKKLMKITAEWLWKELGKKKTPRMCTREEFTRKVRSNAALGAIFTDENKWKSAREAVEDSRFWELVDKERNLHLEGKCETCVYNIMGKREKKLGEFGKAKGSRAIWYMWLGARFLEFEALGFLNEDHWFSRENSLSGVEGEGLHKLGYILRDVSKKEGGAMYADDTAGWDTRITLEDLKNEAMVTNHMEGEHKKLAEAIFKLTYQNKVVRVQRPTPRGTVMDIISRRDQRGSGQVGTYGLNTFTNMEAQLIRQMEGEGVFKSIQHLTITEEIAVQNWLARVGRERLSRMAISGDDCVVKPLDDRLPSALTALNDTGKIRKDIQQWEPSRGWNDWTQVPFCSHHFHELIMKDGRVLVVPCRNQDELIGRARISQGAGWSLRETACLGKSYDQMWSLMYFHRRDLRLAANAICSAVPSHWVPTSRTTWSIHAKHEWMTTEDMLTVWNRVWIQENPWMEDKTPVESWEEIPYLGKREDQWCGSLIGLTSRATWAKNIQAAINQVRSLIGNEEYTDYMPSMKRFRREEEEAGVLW

[9] = Luminescence Cell-Based Dose Confirmation HTS to Identify Inhibitors of Platelet Dense Granule Release. [Related pubchem assays: 1663 (Primary HTS), 1678 (Summary of Project)]; type: functional
[10] = target: Luciferin 4-monooxygenase (Photinus pyralis, UniProt P08659); assay: inhibition of purified Photinus pyralis luciferase – biochemical, luminescence, dose response (AID 1891)
Saccharomyces cerevisiae = assay: S. cerevisiae Caspase-1/ASC signal blockers IC50, NALP1 inhibitor project selectivity test (AID 488863); type: functional, organism-based
[11] = target: NACHT, LRR and PYD domains-containing protein 1 (Homo sapiens, UniProt Q9C000); assay: NALP1 inhibitors in yeast, dose response, luminescent (AID 488860); type: functional
[12] = reduction of Shn3 3'UTR-driven luciferase in osteoblasts – cell-based, Clone20 osteoblasts, firefly luciferase, cherry-picked, dose response (AID 624132); type: functional;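 also: firefly luciferase luminescence from reporter carrying the Shn3 3'UTR in osteoblasts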
[13] = loss of viability in HepG2 cells – cell-based, CellTiter-Glo, cherry-picked, cytotoxicity control for Shn3 inhibitor project, dose response (AID 624134); type: functional
Beta Lactamase = Beta Lactamase (Pseudomonas aeruginosa, UniProt Q932Y6); assay: BLA reporter interference, concentration series – BLA reporter cells, FRET fluorescence, artefact control for NOD2-RIPK2 interaction inhibitor project, dose response (AID 651552); type: functional, cell-based
[14] = non-specific 3'UTR reporter inhibition in Clone20-Shn3RL – cell-based, Renilla luciferase, cherry-picked, counter-screen for Shn3 inhibitor project, dose response (AID 624133); type: functional
Beta-galactosidase = Beta-galactosidase (Escherichia coli, UniProt Q8VNN2); assay: detection-enzyme interference by beta-gal modulators – biochemical, E. coli enzyme, set 3, artefact control for CCR6 antagonist project, dose response (AID 504712); type: functional
[15] = Fluorescence-based cell-based high throughput dose response assay for inhibitors of the interaction of nucleotide-binding oligomerization domain containing 2 (NOD2) and the receptor-interacting serine-threonine kinase 2 (RIPK2).; type: functional; details: Homo sapiens
Tumor necrosis factor = Tumor necrosis factor (Homo sapiens, UniProt P01375); assay: analog potency on TNFa NF-kB signaling – cell-based, revised, SAR follow-up (AID 2337); type: functional
Chain of Tumor necrosis factor (P01375 whole entry): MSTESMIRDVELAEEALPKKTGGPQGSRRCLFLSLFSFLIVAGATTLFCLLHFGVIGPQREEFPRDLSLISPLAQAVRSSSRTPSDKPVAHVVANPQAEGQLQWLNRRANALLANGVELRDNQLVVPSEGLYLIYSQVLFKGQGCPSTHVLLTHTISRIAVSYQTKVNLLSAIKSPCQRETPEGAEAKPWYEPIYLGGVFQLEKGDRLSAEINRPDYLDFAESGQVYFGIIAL

HEK293 [16] = assay: cells; type: functional, cell-based; details: Homo sapiens
HEK293 [17] = assay: NOD2 signaling inhibitors in MDP-stimulated cells, cell-based, uHTS, luminescence (AID 2001); type: functional; details: Homo sapiens
[18] = target: T2, Nucleotide-binding oligomerization domain-containing protein 1 (Homo sapiens, UniProt Q9Y239); assay: blockers of NOD1 pathway activity – revised, SAR follow-up (AID 2333); type: functional
T2 sequence (Q9Y239 whole entry): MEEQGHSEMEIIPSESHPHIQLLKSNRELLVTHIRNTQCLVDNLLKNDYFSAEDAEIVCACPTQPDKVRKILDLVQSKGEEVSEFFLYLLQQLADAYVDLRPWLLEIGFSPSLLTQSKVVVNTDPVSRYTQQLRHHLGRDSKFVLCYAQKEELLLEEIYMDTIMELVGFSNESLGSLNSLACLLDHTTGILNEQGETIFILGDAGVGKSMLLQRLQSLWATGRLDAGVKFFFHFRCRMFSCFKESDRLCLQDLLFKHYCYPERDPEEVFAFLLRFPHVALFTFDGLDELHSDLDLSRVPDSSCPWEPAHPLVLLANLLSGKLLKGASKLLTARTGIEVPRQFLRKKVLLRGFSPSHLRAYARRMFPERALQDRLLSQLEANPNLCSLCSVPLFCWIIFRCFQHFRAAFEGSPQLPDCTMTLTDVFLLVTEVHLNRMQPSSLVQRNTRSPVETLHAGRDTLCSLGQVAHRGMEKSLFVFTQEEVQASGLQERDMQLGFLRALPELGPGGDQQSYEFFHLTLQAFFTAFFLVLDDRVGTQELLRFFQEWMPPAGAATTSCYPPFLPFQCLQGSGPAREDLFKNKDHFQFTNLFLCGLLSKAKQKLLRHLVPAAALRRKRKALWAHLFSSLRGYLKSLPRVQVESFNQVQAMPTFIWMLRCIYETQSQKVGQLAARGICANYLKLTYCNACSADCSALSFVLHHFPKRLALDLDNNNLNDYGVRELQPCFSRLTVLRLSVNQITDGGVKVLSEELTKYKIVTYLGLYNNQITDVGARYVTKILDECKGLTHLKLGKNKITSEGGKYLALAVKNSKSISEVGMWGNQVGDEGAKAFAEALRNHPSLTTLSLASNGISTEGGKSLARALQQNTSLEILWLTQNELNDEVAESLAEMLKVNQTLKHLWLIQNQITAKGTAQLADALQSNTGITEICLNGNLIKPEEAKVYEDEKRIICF

[19] = target: Nucleotide-binding oligomerization domain-containing protein 2 (Homo sapiens, UniProt Q9HC29); assay: PubChem AID 2334; type: functional
Chain of Nucleotide-binding oligomerization domain-containing protein 2 (Q9HC29 whole entry, the tested form may be a part): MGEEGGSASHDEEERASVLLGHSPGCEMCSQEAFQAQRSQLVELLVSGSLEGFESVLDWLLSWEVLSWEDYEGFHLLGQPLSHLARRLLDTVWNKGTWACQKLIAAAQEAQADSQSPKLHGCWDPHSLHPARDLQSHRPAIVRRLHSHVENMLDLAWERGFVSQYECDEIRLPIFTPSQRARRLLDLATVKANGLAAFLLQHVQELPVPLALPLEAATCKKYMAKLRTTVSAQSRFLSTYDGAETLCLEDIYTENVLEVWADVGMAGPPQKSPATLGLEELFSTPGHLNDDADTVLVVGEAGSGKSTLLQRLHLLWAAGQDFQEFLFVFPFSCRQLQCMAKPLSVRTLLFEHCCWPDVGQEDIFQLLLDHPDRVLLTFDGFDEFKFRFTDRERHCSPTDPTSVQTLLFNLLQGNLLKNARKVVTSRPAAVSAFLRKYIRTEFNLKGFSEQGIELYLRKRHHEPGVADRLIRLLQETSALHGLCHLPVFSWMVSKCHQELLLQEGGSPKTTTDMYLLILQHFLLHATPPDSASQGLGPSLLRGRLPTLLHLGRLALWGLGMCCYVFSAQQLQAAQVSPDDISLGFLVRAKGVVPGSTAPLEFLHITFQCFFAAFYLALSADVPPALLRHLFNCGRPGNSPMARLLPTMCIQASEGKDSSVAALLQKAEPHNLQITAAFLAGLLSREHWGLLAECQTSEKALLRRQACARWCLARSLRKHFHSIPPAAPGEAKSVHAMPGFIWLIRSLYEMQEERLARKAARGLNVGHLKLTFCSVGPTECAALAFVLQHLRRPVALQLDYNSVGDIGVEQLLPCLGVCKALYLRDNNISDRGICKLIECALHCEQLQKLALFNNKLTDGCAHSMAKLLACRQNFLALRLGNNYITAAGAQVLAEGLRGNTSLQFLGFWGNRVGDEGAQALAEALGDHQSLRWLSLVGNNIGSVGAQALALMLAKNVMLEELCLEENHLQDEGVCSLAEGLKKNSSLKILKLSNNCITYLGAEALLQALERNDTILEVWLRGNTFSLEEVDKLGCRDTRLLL

HEK293 [20] = assay: cells; details: Homo sapiens
HEK293 [21] = assay: inhibition of NOD1-driven NF-kB reporter – cell-based, luminescence, uHTS, primary screen (AID 1578); type: functional; details: Homo sapiens
HEK293 [22] = assay: cells; type: functional, cell-based; details: Homo sapiens; remark: listed apart in the source
[23] = target: T3, Intestinal-type alkaline phosphatase (Homo sapiens, UniProt P09923); assay: activation of human intestinal alkaline phosphatase – biochemical, luminescent, uHTS hits, set 2, dose response (AID 488817); type: functional;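 also: potency of activators that raise enzyme activity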
T3 sequence (P09923 whole entry): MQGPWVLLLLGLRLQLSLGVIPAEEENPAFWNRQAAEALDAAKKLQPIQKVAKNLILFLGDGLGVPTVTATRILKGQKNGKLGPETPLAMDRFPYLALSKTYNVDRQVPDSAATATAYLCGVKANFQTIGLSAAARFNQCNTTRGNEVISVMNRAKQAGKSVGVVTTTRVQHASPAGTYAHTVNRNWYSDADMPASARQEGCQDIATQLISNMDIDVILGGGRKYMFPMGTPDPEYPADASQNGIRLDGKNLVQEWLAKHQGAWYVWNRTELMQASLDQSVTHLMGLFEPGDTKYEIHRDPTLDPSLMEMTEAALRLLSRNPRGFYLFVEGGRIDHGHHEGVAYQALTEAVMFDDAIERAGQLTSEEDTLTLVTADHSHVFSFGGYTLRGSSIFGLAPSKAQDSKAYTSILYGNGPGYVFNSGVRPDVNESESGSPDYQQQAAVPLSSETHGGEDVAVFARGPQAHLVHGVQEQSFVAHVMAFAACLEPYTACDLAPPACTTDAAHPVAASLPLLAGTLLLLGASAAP

[24] = target: T3, Intestinal-type alkaline phosphatase; assay: human intestinal alkaline phosphatase activators, dose response, biochemical, luminescence, uHTS hits (AID 463120); type: functional
[25] = target: T4, Alkaline phosphatase, tissue-nonspecific isozyme (Homo sapiens, UniProt P05186); assay: activation of tissue-nonspecific alkaline phosphatase – biochemical, TNAP isozyme, human IAP uHTS hits, selectivity assay for human IAP activator project, dose response (AID 488886); type: functional;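 also: potency of compounds raising TNAP activity as a selectivity check on IAP activators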
T4 sequence (P05186 whole entry): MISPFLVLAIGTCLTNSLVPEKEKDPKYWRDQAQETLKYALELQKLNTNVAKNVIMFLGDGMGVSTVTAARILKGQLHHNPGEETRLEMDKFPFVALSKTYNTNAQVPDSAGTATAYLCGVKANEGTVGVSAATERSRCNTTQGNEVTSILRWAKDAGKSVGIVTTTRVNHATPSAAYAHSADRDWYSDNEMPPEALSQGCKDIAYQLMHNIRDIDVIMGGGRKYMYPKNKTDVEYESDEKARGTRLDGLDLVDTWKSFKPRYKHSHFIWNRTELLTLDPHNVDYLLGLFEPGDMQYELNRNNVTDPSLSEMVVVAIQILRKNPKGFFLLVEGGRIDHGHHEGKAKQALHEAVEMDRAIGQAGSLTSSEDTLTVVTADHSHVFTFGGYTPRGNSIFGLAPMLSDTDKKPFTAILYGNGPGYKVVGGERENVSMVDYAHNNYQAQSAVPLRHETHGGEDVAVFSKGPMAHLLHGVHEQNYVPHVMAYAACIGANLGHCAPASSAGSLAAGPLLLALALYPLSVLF

[26] = target: Intestinal-type alkaline phosphatase (Mus musculus, UniProt P24822); assay: PubChem AID 488874; type: functional
Chain of Intestinal-type alkaline phosphatase (Mus musculus, UniProt P24822) (P24822 whole entry): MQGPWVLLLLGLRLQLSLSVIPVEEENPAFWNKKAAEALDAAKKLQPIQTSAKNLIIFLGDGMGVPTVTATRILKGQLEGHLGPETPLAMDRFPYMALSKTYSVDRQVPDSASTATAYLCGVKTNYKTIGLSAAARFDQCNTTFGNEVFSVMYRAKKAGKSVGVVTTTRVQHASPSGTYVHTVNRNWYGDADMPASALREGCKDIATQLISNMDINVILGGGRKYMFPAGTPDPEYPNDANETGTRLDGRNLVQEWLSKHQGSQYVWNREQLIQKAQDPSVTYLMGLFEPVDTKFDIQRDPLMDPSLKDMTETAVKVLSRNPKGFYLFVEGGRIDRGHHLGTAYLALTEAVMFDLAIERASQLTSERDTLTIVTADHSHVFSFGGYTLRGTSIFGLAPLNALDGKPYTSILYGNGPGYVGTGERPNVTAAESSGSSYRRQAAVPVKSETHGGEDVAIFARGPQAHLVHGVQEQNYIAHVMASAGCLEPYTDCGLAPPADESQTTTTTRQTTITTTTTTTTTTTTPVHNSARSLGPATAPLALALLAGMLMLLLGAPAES

[27] = target: Eukaryotic translation initiation factor 4H (Homo sapiens, UniProt Q15056); assay: inhibitors of translation initiation factor eIF4H – SAR follow-up (AID 435011); type: functional
[28] = target: Polyadenylate-binding protein 1 (Homo sapiens, UniProt P11940); assay: PABP inhibition in translation initiation, SAR follow-up (AID 435018); type: functional
Chain of Polyadenylate-binding protein 1 (P11940 whole entry): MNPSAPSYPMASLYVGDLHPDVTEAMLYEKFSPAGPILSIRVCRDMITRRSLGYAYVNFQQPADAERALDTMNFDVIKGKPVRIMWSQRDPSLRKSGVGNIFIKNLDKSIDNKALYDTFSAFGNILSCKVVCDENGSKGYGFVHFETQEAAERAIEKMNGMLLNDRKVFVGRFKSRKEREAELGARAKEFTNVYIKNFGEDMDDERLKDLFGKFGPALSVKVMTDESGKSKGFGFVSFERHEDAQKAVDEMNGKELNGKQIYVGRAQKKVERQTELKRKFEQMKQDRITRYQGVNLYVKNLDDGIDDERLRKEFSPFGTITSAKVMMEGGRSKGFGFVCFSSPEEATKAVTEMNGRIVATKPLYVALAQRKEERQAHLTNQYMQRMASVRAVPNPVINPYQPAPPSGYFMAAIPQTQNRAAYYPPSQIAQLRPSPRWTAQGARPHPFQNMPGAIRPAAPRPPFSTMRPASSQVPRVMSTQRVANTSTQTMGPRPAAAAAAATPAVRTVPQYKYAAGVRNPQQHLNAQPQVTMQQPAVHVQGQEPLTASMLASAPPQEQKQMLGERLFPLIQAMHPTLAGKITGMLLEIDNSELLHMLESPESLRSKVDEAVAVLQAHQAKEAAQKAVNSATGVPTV

[29] = target: DNA dC->dU-editing enzyme APOBEC-3A (Homo sapiens, UniProt P31941); assay: A3A deaminase inhibition for selectivity – biochemical, dose response (AID 504722); type: functional
Chain of DNA dC->dU-editing enzyme APOBEC-3A (P31941 whole entry): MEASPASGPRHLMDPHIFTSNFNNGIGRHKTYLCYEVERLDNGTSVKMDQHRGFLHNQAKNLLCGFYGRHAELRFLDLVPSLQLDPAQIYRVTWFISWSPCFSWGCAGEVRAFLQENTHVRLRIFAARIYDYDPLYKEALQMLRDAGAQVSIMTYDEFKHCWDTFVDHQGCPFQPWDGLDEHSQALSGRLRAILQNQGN

[30] = target: DNA dC->dU-editing enzyme APOBEC-3G (Homo sapiens, UniProt Q9HC16); assay: Dose Response confirmation of small molecule APOBEC3G DNA Deaminase Inhibitors via a fluorescence-based single-stranded DNA deaminase assay. [Related pubchem assays (depositor defined):AID493012, AID493028]; type: functional
Chain of DNA dC->dU-editing enzyme APOBEC-3G (Q9HC16 whole entry): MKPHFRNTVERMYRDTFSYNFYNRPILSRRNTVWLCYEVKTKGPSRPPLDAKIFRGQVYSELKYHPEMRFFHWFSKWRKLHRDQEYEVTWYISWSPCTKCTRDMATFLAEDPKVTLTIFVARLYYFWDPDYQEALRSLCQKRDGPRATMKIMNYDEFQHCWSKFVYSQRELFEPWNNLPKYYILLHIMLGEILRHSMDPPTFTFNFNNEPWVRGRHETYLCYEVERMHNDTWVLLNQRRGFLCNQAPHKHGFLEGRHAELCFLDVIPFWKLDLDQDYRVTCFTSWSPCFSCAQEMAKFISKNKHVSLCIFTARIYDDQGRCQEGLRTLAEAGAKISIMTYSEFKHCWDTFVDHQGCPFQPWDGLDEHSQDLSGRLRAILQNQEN

IC50 [1]: > 100 µM (inactive)
IC50 [3]: > 100 µM (not active)
SMILES: COc1ccc(-c2nnc(NC(=O)c3cc(C)on3)s2)cc1
IC50 [2]: > 75 µM (active)

SMILES: O=C(O)CCN1C(=O)/C(=C\c2cccc(Oc3ccccc3)c2)SC1=S
EC50 (BJ [4]): > 150 µM (inconclusive)
EC50 (BJ [5]): > 150 µM (not active)
EC50 (BJ [6]): > 150 µM (not active)
IC50 [7]: 26.8 µM (active)
EC50 [8]: > 150 µM (not active)
IC50 (Genome polyprotein): 37.4 µM (active)

SMILES: O=C1CC(Sc2nnnn2-c2ccccc2)C(=O)N1c1cccc(Cl)c1 (stereo not given)
EC50 [9]: 19.1 µM (active)
EC50 [10]: > 112 µM (not active)
IC50 (Saccharomyces cerevisiae): 5.13 µM (active)
IC50 [11]: 5.83 µM (active)
AC50 [12]: 8.53 µM (active)
AC50 [13]: 24.5 µM (active)
IC50 (Beta Lactamase): 12.6 µM (inactive)
AC50 [14]: 8.88 µM (active)
IC50 (Beta-galactosidase): > 66.6 µM (inactive)
IC50 [15]: 2.81 µM (active)

SMILES: NC(=O)C1CCN(c2ccc(S(=O)(=O)N3CCC(Cc4ccccc4)CC3)cn2)CC1
IC50 (Tumor necrosis factor): 12.4 µM (active)
IC50 (HEK293 [16]): > 20 µM (inactive)
IC50 (HEK293 [17]): > 20 µM (inactive)
IC50 [18]: 5.76 µM (active)
IC50 [19]: 9.14 µM (active)
IC50 (HEK293 [20]): > 20 µM (inactive)
EC50 (HEK293 [21]): 4.32 µM (active)
IC50 (HEK293 [22]): > 20 µM (inactive)

EC50 [23]: 15.8 µM (active)
EC50 [24]: 10.1 µM (active)
EC50 [25]: 16.6 µM (active)
IC50 [26]: 74.8 µM (active)
SMILES: CN(Cc1ccccc1)C(=O)c1nc[nH]c1C(=O)Nc1nccs1

SMILES: COc1cc(/C=N\NC(=O)c2ccccc2O)ccc1OCC(=O)Nc1ccc(C)c(C)c1
IC50 [27]: 34.6 µM (active)
IC50 [28]: > 100 µM (inactive)

SMILES: O=[N+]([O-])c1ccccc1/C=N/n1c(S)nnc1-c1ccccc1
IC50 [29]: > 100 µM (inactive)
IC50 [30]: 4.25 µM (active)
